Converted amounts (≈) assume the structure as drawn. Like-named read-outs stand apart in the source and are kept apart here.

One data set concerns human platelets. In words: Inhibition of vasopressin induced aggregation of human platelets. The data set is classed as cell-based. The settings on record: human platelet rich plasma, AVP 100 nM. Here is the method:
B-5. Inhibition of Vasopressin Induced Aggregation of Human Platelets for Verification of Prodrug Conversion into Drug
Human platelets endogenously express the V1a receptor. […] Therefore, platelets enriched from human blood may serve as a V1a expressing tissue for pharmacological studies with vasopressin antagonists.
To verify the conversion of prodrugs into the respective drugs, the prodrugs are incubated with and without alkaline phosphatase. Cleavage of the phosphate moiety by alkaline phosphatase converts the prodrug into the drug. As prodrug and underlying respective drug show different IC50 values, the value of the prodrug after alkaline phosphatase treatment resembles the IC50 of the respective drug.
100 μl of test compound at a concentration of 100 μM are incubated for 15 min with 500 units alkaline phosphatase at 37° C. in modified Tyrode buffer (134 mM NaCl, […], 0.34 mM NaH2PO4*H2O, 2.9 mM KCl, 5 mM HEPES, 5 mM Glucose) and stored at 4° C. until further use in the platelet aggregation assay.
Platelet-rich plasma (PRP) is obtained by centrifugation of the blood sample at 140 g for 20 min at room temperature. The resulting pellet is discarded and the PRP further centrifuged (11.000 rpm, 1 min) to produce platelet-poor plasma (PPP). Platelet aggregation is measured turbidimetrically using an aggregometer (APACT 4). The reaction is followed by monitoring changes in light transmission on 178 μL PRP aliquots, under continuous stirring at 37° C., against PPP control. Various concentrations of vasopressin antagonists (in 2 μL) are added to PRP 5 min before the addition of 20 μL AVP (final concentration 100 nM). The inhibitory effects of the compounds are determined by measuring the maximal amplitude of the aggregation curve compared with the control response. IC50 values are calculated on the basis of a concentration-response inhibition curve by an iterative nonlinear regression program. All values are expressed as mean values (Table 3A).

For a further data set, the target named is T1, vasopressin V2 receptor (Rattus norvegicus, UniProt Q00788).
T1 construct: from tissue; host or cells: whole animal (conscious Wistar rats; renal V2 receptors)
Briefly: Diuresis investigations in conscious rats kept in metabolism cages. As to conditions: Wistar rats, i.v., solvent control = 100%. It counts as in vivo. Here is the method: B-8. In Vivo Assay for Detecting Vasopressin V2 Receptor-Meidated Effects: Diuresis Investigations in Conscious Rats Kept in Metabolism Cages
Wistar rats (400-500 g body weight) are kept with free access to feed (Altromin) and drinking water. During the experiment, the animals are kept with free access to drinking water for 7 hours individually in metabolism cages suitable for rats of this weight class (Tecniplast Deutschland GmbH, D-82383 Hohenpeißenberg). At the beginning of the experiment, the animals are administered the test substance in a volume of 1 ml/kg body weight of a suitable solvent (2-Hydroxylpropyl-beta-cyclodextrin) by intravenous application. Control animals only receive solvent. Controls and substance tests are carried out in parallel on the same day. Control groups and substance-dose groups each consist of 6 to 8 animals. During the experiment, the urine excreted by the animals is collected continuously in a receiver at the base of the cage. The volume of urine is determined separately for each animal. Before the beginning of the experiment, the body weight of the individual animals is determined.
Following intravenous administration, in comparison with the solvent control applications, a vasopressin V2 receptor blocking compound would bring about an increased excretion of urine, which is based essentially on an increased excretion of water (aquaresis).

The nature of another data set: pH stability. The data set is classed as physicochemical. The protocol: 0.15 mg of the test compound is dissolved in 0.1 ml dimethylsulfoxide and 0.4 ml acetonitrile. For complete dissolution the HPLC vial with the sample solution is shaken and treated with ultrasonic irradiation. Then 1.0 ml of the respective buffer solution is added and the sample is vortexed. The sample solution is analyzed by HPLC to determine the amount of the test compound at a particular time over a period of 24 h at 37° C. The peak areas in percentage are used for quantification.
pH 4.0: Fluka buffer, Order No. 33643 (11.76 g citric acid, 2.57 g sodium chloride and 2.72 g sodium hydroxide).
pH 7.4: 90 g of sodium chloride, 13.61 g of potassium dihydrogen phosphate and 83.35 g of 1 M sodium hydroxide solution are made up to 1 litre with Millipore water and then diluted 1:10. Adjust with phosphoric acid to pH=7.4.
pH 10: Fluka buffer, Order No. 33649 (4.77 g Borax, 0.73 g sodium hydroxide).
15 μl portions of the sample solution are analysed by HPLC at different times (0 h, 1 h, 2 h, 4 h and 24 h) at 37° C. The peak areas in percentage are used for quantification.
The ratios of the peak area (F) at different times in relation to the peak area at the starting point are shown in Table 8A for representative examples: […]

Another data set can be described thus: Solubility. It counts as physicochemical. The settings on record: 24 h room temperature, max. 500 μg/ml; for solubility at 24 h: thermodynamic from solid. Here is the method: For each substance 0.5-0.6 mg are weighed exactly. In each case, sufficient medium is added to the sample in such a way that a concentration of c=500 μg/ml is obtained. This sample solution is shaken for 24 h at room temperature and 1400 rpm.
A further sample weight of 0.5-0.6 mg is required for the DMSO calibration solution. This sample is filled with DMSO to a concentration of c=600 μg/ml. Two calibration solutions are prepared from this stock solution. In a 2 ml HPLC vial, 1000 μl of DMSO are initially introduced and 34.4 μl of the stock solution are pipetted (c=20 µg/ml). […] of this solution (c=20 μg/ml) are placed in a further 2 ml HPLC vial containing 500 μl of DMSO (c=2.5 μg/ml).
After shaking the test solutions, 230 μl of the supernatant are transferred into a centrifuge tube and centrifuged at 42 000 rpm (223 000 g) for 30 min. 180 μl of the supernatant are then taken and each diluted with DMSO (1:5 sample 1; 1:100 sample 2), and transferred to HPLC vials. The two calibration solutions and the dilute sample solutions are analyzed by HPLC. Quantification is performed over the corresponding peak areas.
Distilled water; trifluoroacetic acid (Merck; 1.08262.0100); acetonitrile (HPLC grade); DMSO (Merck; 8.02912.2500).
Fluka buffer, Order No. 33643 (11.76 g citric acid, 2.57 g sodium chloride and 2.72 g sodium hydroxide).
Fluka buffer, Order No. 33646 (3.52 g potassium dihydrogenphosphate, 7.26 g sodium hydrogen phosphate).
Solution of 6.18 g sodium chloride and 3.96 g sodium dihydrogen phosphate in 1 L distilled water, adjust with 1M aqueous sodium hydroxide solution to pH 7.4.
0.6057 g TRIS was dissolved in 95 ml water, adjust to pH 8.5 with aqueous hydrochloric acid, fill with water until 100 ml volume is reached.

Setting [1] is: with alkaline phosphatase, read-out: IC50 with AP.
Where [2] appears, read: without alkaline phosphatase, read-out: IC50 without AP.
Where [3] appears, read: Tris buffer pH 8.5, pH 8.5, aqueous buffer, pH = 8.5 Tris buffer.
[4] abbreviates: citrate buffer pH 4, pH 4, aqueous buffer, pH = 4 citrate buffer.
Where [5] appears, read: phosphate buffer pH 7, pH 7, aqueous buffer, pH = 7.0 buffer.

T1 sequence (Q00788 whole entry): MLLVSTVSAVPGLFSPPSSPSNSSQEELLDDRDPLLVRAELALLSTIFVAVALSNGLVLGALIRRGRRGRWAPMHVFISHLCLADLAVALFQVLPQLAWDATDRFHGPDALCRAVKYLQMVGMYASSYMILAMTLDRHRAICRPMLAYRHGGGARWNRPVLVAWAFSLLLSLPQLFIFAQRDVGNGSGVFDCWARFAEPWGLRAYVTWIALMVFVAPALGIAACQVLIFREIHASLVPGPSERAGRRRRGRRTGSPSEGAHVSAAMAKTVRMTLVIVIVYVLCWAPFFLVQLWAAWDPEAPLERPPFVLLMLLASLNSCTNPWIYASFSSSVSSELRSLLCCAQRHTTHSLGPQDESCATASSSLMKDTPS

By IC50 is commonly meant the concentration that gives 50% inhibition. A word on the solubility: it is the concentration that dissolves in the medium under given conditions. For the compound `NC(=O)c1nc(Cn2nc(-c3ccc(Cl)cc3)n(C[C@H](OP(=O)(O)O)C(F)(F)F)c2=O)nn1-c1ncccc1C(F)(F)F` [Example 1, (2S)-3-[1-({5-Carbamoyl-1-[3-(trifluoromethyl)pyridin-2-yl]-1H-1,2,4-triazol-3-yl}methyl)-3-(4-chlorophenyl)-5-oxo-1,5-dihydro-4H-1,2,4-triazol-4-yl]-1,1,1-trifluoropropan-2-yl Dihydrogen Phosphate], the IC50 came to 12.7 nM in the data set with human platelets (setting [1]) and 145 nM in the data set with human platelets (setting [2]). Moreover, the Urinary volume on vasopressin V2 receptor (dosage 0.3 mg/kg) is listed as 127 % vs. control; on vasopressin V2 receptor (dosage 1.0 mg/kg), 117 % vs. control; at vasopressin V2 receptor (dosage 3.0 mg/kg) it was 108 % vs. control. The “% Test Compound after 4 h [F(t = 4 h) × 100/F(t = 0 h)]” value (from here on “% Test Compound after 4 h”) in “pH stability” (buffer pH 4, 37° C.) was found to be 100%; in “pH stability” (buffer pH 7.4, 37° C.) it was 99%; in “pH stability” (buffer pH 10, 37° C.), 99%. Also, the “% Test Compound after 24 h [F(t = 24 h) × 100/F(t = 0 h)]” value (from here on “% Test Compound after 24 h”) in the data set “pH stability” (buffer pH 4, 37° C.) was 100%; in the data set “pH stability” (buffer pH 7.4, 37° C.), 99%; in the data set “pH stability” (buffer pH 10, 37° C.) it was 98%. Besides, the solubility at 24 h in “Solubility” (setting [3]), in “Solubility” (setting [4]) and in “Solubility” (setting [5]) was > 500 µg/mL in each case.

Take `NC(=O)c1nc(Cn2nc(-c3ccc(Cl)cc3)n(C[C@H](O)C(F)(F)F)c2=O)nn1-c1ncccc1C(F)(F)F` [Example 4A, 3-({3-(4-Chlorophenyl)-5-oxo-4-[(2S)-3,3,3-trifluoro-2-hydroxypropyl]-4,5-dihydro-1H-1,2,4-triazol-1-yl}methyl)-1-[3-(trifluoromethyl)pyridin-2-yl]-1H-1,2,4-triazole-5-carboxamide]: the 50% inhibitory concentration (IC50) in the data set on human platelets (setting [1]) was 10.2 nM; in the data set with human platelets (setting [2]), 21.1 nM. The Urinary volume worked out at 95 % vs. control on vasopressin V2 receptor (dosage 0.3 mg/kg), 154 % vs. control on vasopressin V2 receptor (dosage 1.0 mg/kg) and 134 % vs. control on vasopressin V2 receptor (dosage 3.0 mg/kg). Further, the figures for the solubility at 24 h in “Solubility” (setting [3]) and in the data set “Solubility” (setting [4]) were 6.7 µg/mL (≈ 11.6 µM) and 8.7 µg/mL (≈ 15.1 µM), respectively. Further, the Solubility result in “Solubility” (pH = 7.0 buffer) is given as “not detectable”.

`NC(=O)c1nc(Cn2nc(-c3ccc(Cl)cc3)n(C[C@H](OP(=O)(O)O)C(F)(F)F)c2=O)nn1-c1ccccc1C(F)(F)F` [Example 10, (2S)-3-[1-({5-Carbamoyl-1-[2-(trifluoromethyl)phenyl]-1H-1,2,4-triazol-3-yl}methyl)-3-(4-chlorophenyl)-5-oxo-1,5-dihydro-4H-1,2,4-triazol-4-yl]-1,1,1-trifluoropropan-2-yl Dihydrogen Phosphate]: the “% Test Compound after 4 h” value in “pH stability” (buffer pH 4, 37° C.) came to 100%; in the data set “pH stability” (buffer pH 7.4, 37° C.) it was 100%. Also, the “% Test Compound after 24 h” value in “pH stability” (buffer pH 4, 37° C.) is 100%; in the data set “pH stability” (buffer pH 7.4, 37° C.), 100%. The solubility at 24 h in the data set “Solubility” (setting [3]) is 479 µg/mL; in the data set “Solubility” (setting [4]) it was 454 µg/mL; in “Solubility” (setting [5]) it was > 500 µg/mL.

For the compound `NC(=O)c1nc(Cn2nc(-c3ccc(Cl)cc3)n(C[C@H](OP(=O)(O)O)C(F)(F)F)c2=O)nn1-c1ncccc1Cl` [Example 17, (2S)-3-[1-{[5-Carbamoyl-1-(3-chloropyridin-2-yl)-1H-1,2,4-triazol-3-yl]methyl}-3-(4-chloro-phenyl)-5-oxo-1,5-dihydro-4H-1,2,4-triazol-4-yl]-1,1,1-trifluoropropan-2-yl Dihydrogen Phosphate], the “% Test Compound after 4 h” value turned out to be 100% in the data set “pH stability” (buffer pH 4, 37° C.) and 100% in “pH stability” (buffer pH 7.4, 37° C.). Besides, the “% Test Compound after 24 h” value in the data set “pH stability” (buffer pH 4, 37° C.) was 100%; in “pH stability” (buffer pH 7.4, 37° C.) it was 100%. Moreover, the solubility at 24 h in “Solubility” (setting [3]), in the data set “Solubility” (setting [4]) and in “Solubility” (setting [5]) was > 500 µg/mL in each case.
